Measured values as given in patent US12285407B2, “Bis-indolylmethane derivatives and uses thereof” (The University of The West Indies, priority 2018, dated 2025).
Where two headings read alike, the source gives them in different places.

How the values were obtained:
Staphylococcus aureus = experiment: Checkerboard synergy (FICI) of antibiotics with SP-BIM; type: cell-based; settings: Staphylococcus aureus
Bacillus cereus = experiment: as above; type: cell-based; settings: for MIC: 24 h, antibiotic alone, read-out: MIC antibiotic only
Klebsiella pneumoniae = experiment: as above; type: cell-based; settings: for MIC: 24 h, antibiotic alone, read-out: MIC antibiotic only
Escherichia coli [1] = experiment: microbe, parasite or virus in culture; type: cell-based; settings: antibiotic alone, Table 6, read-out: MIC of antibiotic, No compound
Candida albicans = experiment: Checkerboard synergy (FICI) of antibiotics with SP-BIM; parameters: MIC SP-BIM 13 only / MIC in combination: Antibiotic / MIC antibiotic only: unit not given beside the values
Enterococcus faecium = experiment: as above; type: cell-based; settings: Enterococcus faecium, Enterococcus faecium; for MIC: 24 h, antibiotic alone, read-out: MIC antibiotic only
Streptococcus pneumoniae = experiment: as above; type: cell-based; settings: for MIC: 24 h, antibiotic alone, read-out: MIC antibiotic only
Escherichia coli [2] = experiment: as above; parameters: MIC SP-BIM 13 only / MIC in combination: Antibiotic: unit not given beside the values; settings: for MIC: 24 h
[3] = antibiotic in combination with SP-BIM 9
[4] = antibiotic in combination with SP-BIM 13
[5] = SP-BIM 9 in combination with the labelled antibiotic
[6] = SP-BIM 13 in combination with the labelled antibiotic
[7] = MIC of the antibiotic in combination with SP-BIM 13
[8] = Streptococcus pneumonia (title: Streptococcus pyogenes), antibiotic + SP-BIM 9
[9] = Streptococcus pneumoniae, antibiotic + SP-BIM 13

C[C@H]1c2cccc(O)c2C(=O)C2=C(O)[C@]3(O)C(=O)C(C(N)=O)=C(O)[C@@H](N(C)C)[C@@H]3[C@@H](O)[C@@H]21 [Doxycycline, doxycycline]
Σ FIC (Staphylococcus aureus; antibiotic + SP-BIM 9): <0.38 | Interpretation (Staphylococcus aureus; antibiotic + SP-BIM 13): Synergy (Synergy: FICI≤0.5) | Σ FIC (Staphylococcus aureus; antibiotic + SP-BIM 13): 0.4 | MIC in combination, Antibiotic (Staphylococcus aureus; [3]): 2.0 µg/mL | MIC in combination, Antibiotic (Staphylococcus aureus; [4]): 1 µg/mL | FIC of antibiotic (Staphylococcus aureus; in combination with SP-BIM 9): 0.25 | FIC of antibiotic (Staphylococcus aureus; in combination with SP-BIM 13): 0.1 | MIC (Bacillus cereus; SP-BIM 9 checkerboard): 4 µg/mL | MIC (Bacillus cereus; SP-BIM 13 checkerboard): 4 µg/mL | MIC in combination, SP-BIM 9 (Bacillus cereus; SP-BIM 9 concentration in combination with the labelled antibiotic): 125 µg/mL | FIC of SP-BIM 9 (Bacillus cereus; [5]): 0.5 | FIC of SP-BIM 13 (Bacillus cereus; [6]): 0.3 | Interpretation (Bacillus cereus; antibiotic + SP-BIM 9): Synergy (Synergy: FICI≤0.5) | Σ FIC (Bacillus cereus; antibiotic + SP-BIM 9): <0.6 | Interpretation (Bacillus cereus; antibiotic + SP-BIM 13): Synergy (Synergy: FICI≤0.5) | Σ FIC (Bacillus cereus; antibiotic + SP-BIM 13): 0.5 | MIC in combination, Antibiotic (Bacillus cereus; [3]): 0.5 µg/mL | MIC in combination, Antibiotic (Bacillus cereus; [4]): 1 µg/mL | FIC of antibiotic (Bacillus cereus; in combination with SP-BIM 9): 0.125 | FIC of antibiotic (Bacillus cereus; in combination with SP-BIM 13): 0.25 | MIC (Klebsiella pneumoniae; SP-BIM 9 checkerboard): 16 µg/mL | MIC (Klebsiella pneumoniae; SP-BIM 13 checkerboard): 16 µg/mL | FIC of SP-BIM 9 (Klebsiella pneumoniae; [5]): 0.5 | FIC of SP-BIM 13 (Klebsiella pneumoniae; [6]): 0.3 | Interpretation (Klebsiella pneumoniae; antibiotic + SP-BIM 9): Additive (Additive: FICI>0.5-1.0) | Σ FIC (Klebsiella pneumoniae; antibiotic + SP-BIM 9): <0.8 | Interpretation (Klebsiella pneumoniae; antibiotic + SP-BIM 13): Synergy (Synergy: FICI≤0.5) | Σ FIC (Klebsiella pneumoniae; antibiotic + SP-BIM 13): <0.4 | MIC in combination, Antibiotic (Klebsiella pneumoniae; [3]): 4 µg/mL | MIC in combination, Antibiotic (Klebsiella pneumoniae; [4]): 2 µg/mL | FIC of antibiotic (Klebsiella pneumoniae; in combination with SP-BIM 9): 0.25 | FIC of antibiotic (Klebsiella pneumoniae; in combination with SP-BIM 13): 0.1 | MIC (Escherichia coli [1]): 63 µg/mL | MIC (Candida albicans; 24 h, read-out: MIC antibiotic only): 16 µg/mL | MIC in combination: Antibiotic (Candida albicans; [7]): 2 | FIC of SP-BIM 13 (Candida albicans; [6]): 0.5 | Interpretation (Candida albicans; antibiotic + SP-BIM 13): Additive (Additive: FICI>0.5-1.0) | Σ FIC (Candida albicans; antibiotic + SP-BIM 13): <0.6 | FIC of antibiotic (Candida albicans; combination with SP-BIM 13): 0.1 | MIC (Enterococcus faecium; SP-BIM 9 checkerboard): 8 µg/mL | MIC (Enterococcus faecium; SP-BIM 13 checkerboard): 8 µg/mL | FIC of SP-BIM 13 (Enterococcus faecium; [6]): 0.5 | Interpretation (Enterococcus faecium; antibiotic + SP-BIM 13): Additive (Additive: FICI>0.5-1.0) | Σ FIC (Enterococcus faecium; antibiotic + SP-BIM 13): 0.6 | MIC in combination, Antibiotic (Enterococcus faecium; [4]): 1 µg/mL | FIC of antibiotic (Enterococcus faecium; in combination with SP-BIM 13): 0.1 | FIC of SP-BIM 9 (Streptococcus pneumoniae; Streptococcus pneumonia (title: Streptococcus pyogenes), SP-BIM 9 in combination with the labelled antibiotic): 0.50 | Interpretation (Streptococcus pneumoniae; [8]): Additive (Additive: FICI>0.5-1.0) | Σ FIC (Streptococcus pneumoniae; [8]): <0.75 | MIC in combination, Antibiotic (Streptococcus pneumoniae; Streptococcus pneumonia (title: Streptococcus pyogenes), antibiotic in combination with SP-BIM 9): 4 µg/mL | FIC of antibiotic (Streptococcus pneumoniae; Streptococcus pneumonia (title: Streptococcus pyogenes), in combination with SP-BIM 9): 0.25 | MIC (Streptococcus pneumoniae; Streptococcus pneumoniae, Streptococcus pneumonia (title: Streptococcus pyogenes), SP-BIM 9 checkerboard): 16 µg/mL | MIC (Streptococcus pneumoniae; Streptococcus pneumoniae, Streptococcus pneumoniae, SP-BIM 13 checkerboard): 16 µg/mL | FIC of SP-BIM 13 (Streptococcus pneumoniae; Streptococcus pneumoniae, SP-BIM 13 in combination with the labelled antibiotic): 0.3 | Interpretation (Streptococcus pneumoniae; [9]): Synergy (Synergy: FICI≤0.5) | Σ FIC (Streptococcus pneumoniae; [9]): <0.3 | MIC in combination, Antibiotic (Streptococcus pneumoniae; Streptococcus pneumoniae, antibiotic in combination with SP-BIM 13): 1 µg/mL | FIC of antibiotic (Streptococcus pneumoniae; Streptococcus pneumoniae, in combination with SP-BIM 13): 0.1 | MIC (Escherichia coli [2]; read-out: MIC antibiotic only, Escherichia coli, antibiotic alone): 16 µg/mL | MIC (Escherichia coli [2]; read-out: MIC antibiotic only, Escherichia coli, antibiotic alone, SP-BIM 9 checkerboard): 16 µg/mL | MIC in combination: Antibiotic (Escherichia coli [2]; [7]): 2 | FIC of SP-BIM 9 (Escherichia coli [2]; [5]): 0.5 | FIC of SP-BIM 13 (Escherichia coli [2]; [6]): 0.3 | Interpretation (Escherichia coli [2]; antibiotic + SP-BIM 9): Synergy (Synergy: FICI≤0.5) | Σ FIC (Escherichia coli [2]; antibiotic + SP-BIM 9): <1.0 | Interpretation (Escherichia coli [2]; antibiotic + SP-BIM 13): Synergy (Synergy: FICI≤0.5) | Σ FIC (Escherichia coli [2]; antibiotic + SP-BIM 13): <0.4 | MIC in combination, Antibiotic (Escherichia coli [2]; [3]): 8 µg/mL | FIC of antibiotic (Escherichia coli [2]; combination with SP-BIM 13): 0.1 | FIC of antibiotic (Escherichia coli [2]; in combination with SP-BIM 9): 0.5
